Assay results: US9416115B2, “Fused heterocyclic compounds as ion channel modulators” (Gilead Sciences, Inc., priority 2013, dated 2016)
Like-named read-outs stand apart in the source and are kept apart here.

How the values were obtained:
hNaV1.2 (SCN2A) = target: T1, hNaV1.2 (SCN2A) (Homo sapiens, UniProt Q99250); experiment: Use-dependent inhibition of the CNS Nav1.2 sodium channel; assay type: cell-based; details: use-dependent block, 25 Hz, pulse 20, read-out: Nav1.2 UDB 25 Hz 10 uM
T1 construct: expressed in transfected cells
T1 sequence (Q99250 whole entry): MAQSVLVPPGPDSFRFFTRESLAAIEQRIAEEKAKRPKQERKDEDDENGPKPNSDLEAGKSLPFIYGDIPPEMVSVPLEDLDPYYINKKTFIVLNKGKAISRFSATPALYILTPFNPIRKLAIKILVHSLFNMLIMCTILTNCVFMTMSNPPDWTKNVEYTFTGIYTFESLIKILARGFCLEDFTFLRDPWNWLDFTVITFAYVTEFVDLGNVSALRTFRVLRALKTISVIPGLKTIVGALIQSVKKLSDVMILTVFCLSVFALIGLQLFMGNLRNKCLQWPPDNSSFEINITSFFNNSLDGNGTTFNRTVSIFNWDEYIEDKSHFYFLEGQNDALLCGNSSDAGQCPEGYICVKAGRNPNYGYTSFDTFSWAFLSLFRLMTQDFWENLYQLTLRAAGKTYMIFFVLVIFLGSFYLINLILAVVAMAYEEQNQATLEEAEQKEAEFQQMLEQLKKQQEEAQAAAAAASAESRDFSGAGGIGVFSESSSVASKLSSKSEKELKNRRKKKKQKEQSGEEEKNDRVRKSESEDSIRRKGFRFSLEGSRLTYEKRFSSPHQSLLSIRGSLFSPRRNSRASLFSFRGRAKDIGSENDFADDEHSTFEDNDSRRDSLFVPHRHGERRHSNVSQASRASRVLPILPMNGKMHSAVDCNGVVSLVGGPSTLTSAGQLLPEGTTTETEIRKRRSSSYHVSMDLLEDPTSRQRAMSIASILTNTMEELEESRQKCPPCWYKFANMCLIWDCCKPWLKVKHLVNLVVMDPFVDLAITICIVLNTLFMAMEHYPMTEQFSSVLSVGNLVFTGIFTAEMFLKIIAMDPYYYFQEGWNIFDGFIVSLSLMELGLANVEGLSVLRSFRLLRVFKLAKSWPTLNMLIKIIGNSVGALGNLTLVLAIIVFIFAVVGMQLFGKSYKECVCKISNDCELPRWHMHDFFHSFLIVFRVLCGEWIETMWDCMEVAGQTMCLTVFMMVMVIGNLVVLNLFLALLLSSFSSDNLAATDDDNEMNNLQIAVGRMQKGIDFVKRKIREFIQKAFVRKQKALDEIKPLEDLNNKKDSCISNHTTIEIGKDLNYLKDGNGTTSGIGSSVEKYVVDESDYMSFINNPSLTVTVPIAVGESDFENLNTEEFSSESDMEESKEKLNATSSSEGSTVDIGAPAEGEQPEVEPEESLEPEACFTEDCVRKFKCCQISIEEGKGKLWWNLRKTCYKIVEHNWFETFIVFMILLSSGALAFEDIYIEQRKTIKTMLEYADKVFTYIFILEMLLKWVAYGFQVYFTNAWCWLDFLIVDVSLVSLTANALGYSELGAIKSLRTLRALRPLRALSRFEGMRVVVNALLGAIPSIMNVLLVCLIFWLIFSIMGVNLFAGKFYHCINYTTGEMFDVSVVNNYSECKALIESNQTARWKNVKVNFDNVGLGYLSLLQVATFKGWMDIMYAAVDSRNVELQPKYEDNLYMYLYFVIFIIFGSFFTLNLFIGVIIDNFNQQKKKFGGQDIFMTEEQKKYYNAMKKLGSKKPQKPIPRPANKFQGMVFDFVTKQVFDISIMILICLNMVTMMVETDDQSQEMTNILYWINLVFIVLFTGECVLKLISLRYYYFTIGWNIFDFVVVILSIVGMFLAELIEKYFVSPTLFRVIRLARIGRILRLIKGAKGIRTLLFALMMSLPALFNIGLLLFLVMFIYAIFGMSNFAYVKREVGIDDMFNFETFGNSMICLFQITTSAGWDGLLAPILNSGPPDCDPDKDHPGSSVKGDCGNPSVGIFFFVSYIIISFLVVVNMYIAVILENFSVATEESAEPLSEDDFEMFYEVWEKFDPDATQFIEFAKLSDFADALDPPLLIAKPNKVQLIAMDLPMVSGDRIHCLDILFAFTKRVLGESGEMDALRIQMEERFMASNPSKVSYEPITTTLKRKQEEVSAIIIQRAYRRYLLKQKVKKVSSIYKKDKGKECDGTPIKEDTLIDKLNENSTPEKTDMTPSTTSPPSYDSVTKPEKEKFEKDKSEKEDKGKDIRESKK
T1 sequence (Q07699 19-218 partner): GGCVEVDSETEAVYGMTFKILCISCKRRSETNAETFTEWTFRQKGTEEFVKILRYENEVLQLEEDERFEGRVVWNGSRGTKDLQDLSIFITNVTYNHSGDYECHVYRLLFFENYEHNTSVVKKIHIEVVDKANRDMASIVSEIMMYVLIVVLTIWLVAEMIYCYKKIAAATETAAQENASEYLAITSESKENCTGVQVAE
T1 sequence (O60939 30-215 partner): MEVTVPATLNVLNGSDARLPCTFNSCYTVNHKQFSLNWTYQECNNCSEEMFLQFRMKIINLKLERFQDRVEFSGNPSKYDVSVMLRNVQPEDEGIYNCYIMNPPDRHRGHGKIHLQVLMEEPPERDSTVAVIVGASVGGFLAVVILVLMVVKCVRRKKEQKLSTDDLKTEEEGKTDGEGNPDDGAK
Experimental: HEK-293 cells stably expressing wild-type (WT) hNaV1.2 (SCN2A NCBI # NM_021007.2, SCN1B NCBI # NM_001037.4, SCN2B NCBI # NM_004588.2) were used to record INa. Cells are maintained with standard tissue culture procedures and stable channel expression is maintained with 800 ug/mL G418 and 3 ug/mL Puromycin in the culture medium. Unless otherwise noted, all reagents are purchased from Sigma-Aldrich (St Louis, Mo., U.S.A.).
Assays measuring Use-Dependent Block (UDB) of Nav1.2 are performed on an automated electrophysiology platform, QPatch 16X or QPatch HT (Sophion Bioscience, Copenhagen, Denmark), using the whole cell patch clamp technique to measure currents through the cell membrane. Series resistance compensation is set to 100% and series resistance and whole-cell compensation are performed automatically. Currents stored in the Sophion Bioscience Oracle database (Sophion Bioscience, Copenhagen, Denmark). Analysis is performed using QPatch Assay software and data are compiled in Excel 2010 (Microsoft, Seattle, Wash., U.S.A.).
The internal (pipette) solution consists of (in mM) 105 CsF, 10 NaF, 20 CsCl, 2 EGTA, 10 HEPES, 10 Dextrose with a pH of 7.35 and osmolarity of 300 mOsmol/kg. The external (bath) solution contains in (mM): 145 NaCl, 4 KCl, 1.8 CaCl2, 1 MgCl2, 10 dextrose, 10 HEPES, with a pH of 7.35 and osmolarity of 310 mOsmol/kg. Experiments are carried out at 23-25° C.
Compound stocks are routinely made by the Gilead Sample Bank in vials to 10 mM in dimethyl sulfoxide (DMSO). In some cases, when compounds are not soluble in DMSO, they are made in 100% ethanol. Stocks are sonicated as necessary. […]
Cells are allowed to stabilize for 10 min after establishment of the whole-cell configuration before current is measured. The test compound is applied 2 times at 60 second intervals. After the second compound addition, a 200 second wait period was imposed to allow for equilibration. Leak currents are subtracted by using an online P/4 procedure and all currents are low-pass Bessel filtered at 5 kHz and digitized at […].
Results are presented as mean percentage inhibition.
Use-dependent block of Nav1.2 peak current is measured during pulse number 20 of a voltage pulse train (0 mV, 20 ms, 20 pulses, 25 Hz) from a holding potential of −120 mV.
Currents are normalized to the peak current recorded in response to the first pulse in each frequency train. The voltage protocol for UDB was performed in the absence and presence of compound and percentage inhibition was calculated with respect to the compound free condition.

[1] = target: wild-type human cardiac sodium channel, hNav1.5 (Homo sapiens, UniProt Q14524); experiment: Peak INa screening assay (tonic block and use-dependent block); assay type: cell-based
Sequence of wild-type human cardiac sodium channel, hNav1.5 (Q14524 whole entry): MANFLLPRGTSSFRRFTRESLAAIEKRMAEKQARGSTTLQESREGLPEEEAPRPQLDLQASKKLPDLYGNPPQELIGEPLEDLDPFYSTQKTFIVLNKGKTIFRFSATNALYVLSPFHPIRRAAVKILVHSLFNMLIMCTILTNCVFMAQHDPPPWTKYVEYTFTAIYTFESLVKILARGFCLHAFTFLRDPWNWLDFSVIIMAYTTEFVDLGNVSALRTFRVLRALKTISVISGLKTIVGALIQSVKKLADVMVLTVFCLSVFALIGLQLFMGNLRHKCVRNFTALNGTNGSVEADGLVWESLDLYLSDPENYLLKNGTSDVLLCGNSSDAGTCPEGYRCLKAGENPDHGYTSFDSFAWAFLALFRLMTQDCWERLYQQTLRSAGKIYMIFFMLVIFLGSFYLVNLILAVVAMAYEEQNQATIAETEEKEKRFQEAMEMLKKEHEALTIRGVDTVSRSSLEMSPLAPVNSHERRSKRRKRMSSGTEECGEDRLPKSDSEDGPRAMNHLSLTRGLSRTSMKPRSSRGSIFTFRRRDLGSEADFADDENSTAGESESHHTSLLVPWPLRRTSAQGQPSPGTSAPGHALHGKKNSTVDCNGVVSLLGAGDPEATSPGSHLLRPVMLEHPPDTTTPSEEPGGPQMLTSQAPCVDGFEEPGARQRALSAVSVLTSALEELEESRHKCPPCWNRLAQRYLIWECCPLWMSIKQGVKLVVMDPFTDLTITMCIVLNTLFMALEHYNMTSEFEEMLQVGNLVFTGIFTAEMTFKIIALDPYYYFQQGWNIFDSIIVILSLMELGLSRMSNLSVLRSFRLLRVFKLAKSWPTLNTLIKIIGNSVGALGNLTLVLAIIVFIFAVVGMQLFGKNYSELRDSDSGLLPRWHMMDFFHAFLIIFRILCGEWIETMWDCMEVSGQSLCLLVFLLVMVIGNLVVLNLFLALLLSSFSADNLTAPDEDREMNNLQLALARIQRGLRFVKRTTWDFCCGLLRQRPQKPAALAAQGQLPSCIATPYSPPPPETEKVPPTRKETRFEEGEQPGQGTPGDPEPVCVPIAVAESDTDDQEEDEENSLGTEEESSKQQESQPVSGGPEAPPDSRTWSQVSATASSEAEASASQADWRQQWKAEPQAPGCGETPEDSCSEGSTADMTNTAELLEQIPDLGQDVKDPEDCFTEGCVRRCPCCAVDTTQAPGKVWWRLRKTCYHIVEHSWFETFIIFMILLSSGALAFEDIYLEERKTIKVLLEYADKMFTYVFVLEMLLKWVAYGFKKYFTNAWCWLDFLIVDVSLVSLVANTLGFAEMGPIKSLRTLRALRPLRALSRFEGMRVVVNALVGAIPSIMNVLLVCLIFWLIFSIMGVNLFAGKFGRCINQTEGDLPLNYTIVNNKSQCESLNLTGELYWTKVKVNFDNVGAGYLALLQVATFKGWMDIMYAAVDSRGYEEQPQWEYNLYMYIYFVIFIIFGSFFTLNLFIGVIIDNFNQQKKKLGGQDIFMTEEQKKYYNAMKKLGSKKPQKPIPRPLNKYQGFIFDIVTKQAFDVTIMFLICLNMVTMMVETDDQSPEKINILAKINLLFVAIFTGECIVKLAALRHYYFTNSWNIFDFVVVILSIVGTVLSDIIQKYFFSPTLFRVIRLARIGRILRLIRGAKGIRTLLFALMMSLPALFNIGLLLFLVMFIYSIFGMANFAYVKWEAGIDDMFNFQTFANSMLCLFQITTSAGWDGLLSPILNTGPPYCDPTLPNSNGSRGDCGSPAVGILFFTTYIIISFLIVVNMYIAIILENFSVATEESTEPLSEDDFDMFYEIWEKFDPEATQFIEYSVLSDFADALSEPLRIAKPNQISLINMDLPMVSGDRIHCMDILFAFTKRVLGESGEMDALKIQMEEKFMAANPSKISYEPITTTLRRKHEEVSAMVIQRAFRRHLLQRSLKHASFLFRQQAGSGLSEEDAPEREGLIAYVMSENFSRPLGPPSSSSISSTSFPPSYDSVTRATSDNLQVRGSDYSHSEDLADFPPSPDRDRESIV
In short: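 Whole-cell automated patch clamp, 23-25° C, on hNav1.5 alpha-only HEK293 cells with Na+ lowered to 40 mM by choline. Block measured after two additions of 1 or 3 μM compound and 200 s wait: tonic at 0.1 Hz, use-dependent at 50th pulse (−20 mV, 20 ms, 3 Hz) from −100 mV, relative to drug-free, rundown corrected.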

[2] = tonic block of Peak INa, 0.1 Hz, holding -100 mV, read-out: Peak TB 3 uM
[3] = use-dependent block of Peak INa, 3 Hz, pulse 50, read-out: Peak UDB 3 Hz 3 uM

Structure (SMILES)	inhibition at 10 µM (hNaV1.2 (SCN2A)) [%]	inhibition at 3 µM [1, 2] [%]	inhibition at 3 µM [1, 3] [%]
FC(F)(F)Oc1ccc(-c2ccc3onc(OC[C@H]4COCCN4)c3c2)cc1 [Example 114, (R)-3-(morpholin-3-ylmethoxy)-5-(4-(trifluoromethoxy)phenyl)benzo[d]isoxazole]	87	43.4	33.3
CC(=O)N1CCOC[C@H]1COc1noc2ccc(-c3ccc(OC(F)(F)F)cc3)cc12 [Example 115, (S)-1-(3-(((5-(4-(trifluoromethoxy)phenyl)benzo[d]isoxazol-3-yl)oxy)methyl)morpholino)ethan-1-one]	70.8	19.8	18.3
CC(=O)N1CCOC[C@@H]1COc1noc2ccc(-c3ccc(OC(F)(F)F)cc3)cc12 [Example 116, (R)-1-(3-(((5-(4-(trifluoromethoxy)phenyl)benzo[d]isoxazol-3-yl)oxy)methyl)morpholino)ethan-1-one]	62.3	28.9	15
C[C@@H](N)COc1noc2ccc(-c3ccc(OC(F)(F)F)cc3)cc12 [Example 117, (R)-1-((5-(4-(trifluoromethoxy)phenyl)benzo[d]isoxazol-3-yl)oxy)propan-2-amine]	88.4	79.3	60.8
CC(C)[C@H](N)COc1noc2ccc(-c3ccc(OC(F)(F)F)cc3)cc12 [Example 118, (S)-3-methyl-1-((5-(4-(trifluoromethoxy)phenyl)benzo[d]isoxazol-3-yl)oxy)butan-2-amine]	90.4	88.8	56.1
C[C@H](COc1noc2ccc(-c3ccc(OC(F)(F)F)cc3)cc12)N1CCCC1=O [Example 119, (R)-1-(1-((5-(4-(trifluoromethoxy)phenyl)benzo[d]isoxazol-3-yl)oxy)propan-2-yl)pyrrolidin-2-one]	52.3	36.1	6.4
CC(C)[C@@H](COc1noc2ccc(-c3ccc(OC(F)(F)F)cc3)cc12)N1CCCC1=O [Example 120, (S)-1-(3-methyl-1-((5-(4-(trifluoromethoxy)phenyl)benzo[d]isoxazol-3-yl)oxy)butan-2-yl)pyrrolidin-2-one]	74.4	35.2	6.6
O=C(COc1noc2ccc(-c3ccc(OC(F)(F)F)cc3)cc12)N1CCCC1 [Example 121, 1-(pyrrolidin-1-yl)-2-((5-(4-(trifluoromethoxy)phenyl)benzo[d]isoxazol-3-yl)oxy)ethan-1-one]	57.8	79	23.4
CC(C)NC(=O)COc1noc2ccc(-c3ccc(OC(F)(F)F)cc3)cc12 [Example 122, N-isopropyl-2-((5-(4-(trifluoromethoxy)phenyl)benzo[d]isoxazol-3-yl)oxy)acetamide]	29.7	10.7	< 5
FC(F)(F)Oc1ccc(-c2ccc3onc(OCCNc4ncccn4)c3c2)cc1 [Example 123, N-(2-((5-(4-(trifluoromethoxy)phenyl)benzo[d]isoxazol-3-yl)oxy)ethyl)pyrimidin-2-amine]	< 5	27.3	< 5
FC(F)(F)Oc1ccc(-c2ccc3onc(Oc4ncccn4)c3c2)cc1 [Example 124, 3-(pyrimidin-2-yloxy)-5-(4-(trifluoromethoxy)phenyl)benzo[d]isoxazole]	44.9	49.9	< 5
FC(F)(F)Oc1ccc(-c2ccc3onc(NCc4ncccn4)c3c2)cc1 [Example 126, N-(pyrimidin-2-ylmethyl)-5-(4-(trifluoromethoxy)phenyl)benzo[d]isoxazol-3-amine]	< 5	17.3	< 5
CN1CCN(c2noc3ccc(-c4ccc(OC(F)(F)F)cc4)cc23)CC1 [Example 127, 3-(4-methylpiperazin-1-yl)-5-(4-(trifluoromethoxy)phenyl)benzo[d]isoxazole]	76.5	23.7	25.1
FC(F)(F)Oc1ccc(-c2ccc3onc(NCC4CC4)c3c2)cc1 [Example 128, N-(cyclopropylmethyl)-5-(4-(trifluoromethoxy)phenyl)benzo[d]isoxazol-3-amine]	< 5	17.3	< 5
FC(F)(F)Oc1ccc(-c2ccc3onc(N4CCOCC4)c3c2)cc1 [Example 130, 3-morpholino-5-(4-(trifluoromethoxy)phenyl)benzo[d]isoxazole]	< 5	9.2	< 5
FC(F)(F)Oc1ccc(-c2ccc3onc(-n4ccnc4)c3c2)cc1 [Example 132, 3-(1H-imidazol-1-yl)-5-(4-(trifluoromethoxy)phenyl)benzo[d]isoxazole]	< 5	20.6	5.1
CN(C)c1noc2ccc(-c3ccc(OC(F)(F)F)cc3)cc12 [Example 133, N,N-dimethyl-5-(4-(trifluoromethoxy)phenyl)benzo[d]isoxazol-3-amine]	29.2	38.8	5.2
O=C1CCCN1CCNc1noc2ccc(-c3ccc(OC(F)(F)F)cc3)cc12 [Example 135, 1-(2-((5-(4-(trifluoromethoxy)phenyl)benzo[d]isoxazol-3-yl)amino)ethyl)pyrrolidin-2-one]	76.5	29.3	18
FC(F)(F)Oc1ccc(-c2ccc3onc(-n4cncn4)c3c2)cc1 [Example 136, 3-(1H-1,2,4-triazol-1-yl)-5-(4-(trifluoromethoxy)phenyl)benzo[d]isoxazole]	< 5	10.5	< 5
FC(F)(F)Oc1ccc(-c2ccc3onc(NCCn4cncn4)c3c2)cc1 [Example 137, N-(2-(1H-1,2,4-triazol-1-yl)ethyl)-5-(4-(trifluoromethoxy)phenyl)benzo[d]isoxazol-3-amine]	86	43.9	17.4
Cc1cn(-c2noc3ccc(-c4ccc(OC(F)(F)F)cc4)cc23)cn1 [Example 139, 3-(4-methyl-1H-imidazol-1-yl)-5-(4-(trifluoromethoxy)phenyl)benzo[d]isoxazole]	26.1	15.6	< 5
FC(F)(F)Oc1ccc(-c2ccc3onc(-n4cnc(Cl)c4)c3c2)cc1 [Example 140, 3-(4-chloro-1H-imidazol-1-yl)-5-(4-(trifluoromethoxy)phenyl)benzo[d]isoxazole]	< 5	8.5	< 5
Cc1ncn(-c2noc3ccc(-c4ccc(OC(F)(F)F)cc4)cc23)n1 [Example 141, 3-(3-methyl-1H-1,2,4-triazol-1-yl)-5-(4-(trifluoromethoxy)phenyl)benzo[d]isoxazole]	19.9	17.8	< 5
FC(F)(F)Oc1ccc(-c2ccc3onc(-n4cnc(-c5ccccc5)c4)c3c2)cc1 [Example 142, 3-(4-phenyl-1H-imidazol-1-yl)-5-(4-(trifluoromethoxy)phenyl)benzo[d]isoxazole]	65	15.6	13.9
CC(C)(C)c1cn(-c2noc3ccc(-c4ccc(OC(F)(F)F)cc4)cc23)cn1 [Example 143, 3-(4-(tert-butyl)-1H-imidazol-1-yl)-5-(4-(trifluoromethoxy)phenyl)benzo[d]isoxazole]	57.1	39.8	11.2
